The results in this text go back to PubChem BioAssay AID1259407 (Chemical Carcinogenesis Research Information System (CCRIS), 2018).

This data set relates to CCRIS mutagenicity, Ames/micronucleus/aberration tests. The data set can be described thus: CCRIS mutagenicity studies.
The mark [1] stands for this setting: Test System: AMES SALMONELLA TYPHIMURIUM, Strain/Indicator: TA98, Metabolic Activation: NONE, Method: PREINCUBATION
Where [2] appears, read: Test System: AMES SALMONELLA TYPHIMURIUM, Strain/Indicator: TA97, Metabolic Activation: RAT, LIVER, S-9, AROCLOR 1254, Method: STANDARD PLATE.
Where [3] appears, read: Test System: AMES SALMONELLA TYPHIMURIUM, Strain/Indicator: TA98, Metabolic Activation: NONE, Method: STANDARD PLATE.
Where [4] appears, read: Test System: AMES SALMONELLA TYPHIMURIUM, Strain/Indicator: TA100, Metabolic Activation: NONE, Method: STANDARD PLATE.

Calls of active or inactive are those of the source. How the calls were made is not given here.

Consider `Cc1c(N=C=O)cccc1N=C=O`, for which the mutagenic call is “active; positive (ploidy changes); authors report equivocal results for structural chang” (End Point: IN VITRO CHROMOSOMAL ABERRATIONS, Test System: CHL CELLS, Metabolic Activation: RAT, LIVER, S-9, SODIUM PHENOBARBITAL AND 5,6-BENZOFLAVONE); “inactive; negative; precipitation occurred at 500 ug/ml” (End Point: IN VITRO CHROMOSOMAL ABERRATIONS, Test System: CHO CELLS, Metabolic Activation: RAT, LIVER, S-9, AROCLOR 1254); “inactive; negative” (Test System: AMES SALMONELLA TYPHIMURIUM, Strain/Indicator: TA97, Metabolic Activation: HAMSTER, LIVER, S-9, AROCLOR 1254 (10%), Method: PREINCUBATION); “inactive; negative” (Test System: AMES SALMONELLA TYPHIMURIUM, Strain/Indicator: TA97, Metabolic Activation: NONE, Method: PREINCUBATION); “inactive; negative” (Test System: AMES SALMONELLA TYPHIMURIUM, Strain/Indicator: TA97, Metabolic Activation: RAT, LIVER, S-9, AROCLOR 1254 (10%), Method: PREINCUBATION); “active; positive” (Test System: AMES SALMONELLA TYPHIMURIUM, Strain/Indicator: TA98, Metabolic Activation: HAMSTER, LIVER, S-9, AROCLOR 1254 (10%), Method: PREINCUBATION). In addition, the mutagenic call is, setting by setting: under setting [1], “inactive; negative”; (Test System: AMES SALMONELLA TYPHIMURIUM, Strain/Indicator: TA98, Metabolic Activation: RAT LIVER S-9 AROCLOR 1254 (10 OR 30%), Method: STANDARD PLATE) “active; positive”; (Test System: AMES SALMONELLA TYPHIMURIUM, Strain/Indicator: TA98, Metabolic Activation: RAT, LIVER, S-9, AROCLOR 1254 (10%), Method: PREINCUBATION) “active; positive”; (Test System: AMES SALMONELLA TYPHIMURIUM, Strain/Indicator: TA100, Metabolic Activation: HAMSTER, LIVER, S-9, AROCLOR 1254 (10%), Method: PREINCUBATION) “active; positive”; (Test System: AMES SALMONELLA TYPHIMURIUM, Strain/Indicator: TA100, Metabolic Activation: NONE, Method: PREINCUBATION) “inactive; negative”; (Test System: AMES SALMONELLA TYPHIMURIUM, Strain/Indicator: TA100, Metabolic Activation: RAT, LIVER, S-9, AROCLOR 1254 (10%), Method: PREINCUBATION) “inactive; negative”. Moreover, the mutagenic call runs as follows: (Test System: AMES SALMONELLA TYPHIMURIUM, Strain/Indicator: TA1535, Metabolic Activation: HAMSTER, LIVER, S-9, AROCLOR 1254 (10%), Method: PREINCUBATION) “inactive; negative”; (Test System: AMES SALMONELLA TYPHIMURIUM, Strain/Indicator: TA1535, Metabolic Activation: NONE, Method: PREINCUBATION) “inactive; negative”; (Test System: AMES SALMONELLA TYPHIMURIUM, Strain/Indicator: TA1535, Metabolic Activation: RAT LIVER S-9, PHENOBARBITAL AND BETA-NAPHTHOFLAVONE, Method: PREINCUBATION) “inactive; negative”; (Test System: AMES SALMONELLA TYPHIMURIUM, Strain/Indicator: TA1535, Metabolic Activation: RAT, LIVER, S-9, AROCLOR 1254 (10%), Method: PREINCUBATION) “inactive; negative”; (Test System: AMES SALMONELLA TYPHIMURIUM, Strain/Indicator: TA1537, Metabolic Activation: NONE, Method: PREINCUBATION) “inactive; negative”; (Test System: AMES SALMONELLA TYPHIMURIUM, Strain/Indicator: TA1537, Metabolic Activation: RAT LIVER S-9, AROCLOR 1254 (10 OR 30%), Method: STANDARD PLATE) “inactive; negative”. Besides, the mutagenic call runs as follows: (Test System: AMES SALMONELLA TYPHIMURIUM, Strain/Indicator: TA1537, Metabolic Activation: RAT LIVER S-9, PHENOBARBITAL AND BETA-NAPHTHOFLAVONE, Method: PREINCUBATION) “inactive; negative”; (Test System: E.COLI, Strain/Indicator: WP2UVRA, Metabolic Activation: NONE, Method: PREINCUBATION) “inactive; negative”; (Test System: E.COLI, Strain/Indicator: WP2UVRA, Metabolic Activation: RAT LIVER S-9, PHENOBARBITAL AND BETA-NAPHTHOFLAVONE, Method: PREINCUBATION) “inactive; negative”; (Test System: MOUSE LYMPHOMA, Strain/Indicator: L5178Y (TK+/TK-), Metabolic Activation: NONE, Method: SUSPENSION/PLATE) “active; positive”; (Test System: MOUSE LYMPHOMA, Strain/Indicator: L5178Y (TK+/TK-), Metabolic Activation: RAT, LIVER, S-9, AROCLOR 1254, Method: SUSPENSION/PLATE) “active; positive”.
Regarding `Clc1cccnc1Cl`, the mutagenic call is, setting by setting: (Test System: AMES SALMONELLA TYPHIMURIUM, Strain/Indicator: TA97, Metabolic Activation: NONE, Method: STANDARD PLATE) “inactive; negative”; under setting [2], “active; positive”; under setting [3], “inactive; negative”; (Test System: AMES SALMONELLA TYPHIMURIUM, Strain/Indicator: TA98, Metabolic Activation: RAT, LIVER, S-9, AROCLOR 1254, Method: STANDARD PLATE) “inactive; negative”; under setting [4], “inactive; negative”; (Test System: AMES SALMONELLA TYPHIMURIUM, Strain/Indicator: TA102, Metabolic Activation: NONE, Method: STANDARD PLATE) “inactive; negative”. Also, where the note is “Test System: AMES SALMONELLA TYPHIMURIUM, Strain/Indicator: TA102, Metabolic Activation: RAT, LIVER, S-9, AROCLOR 1254, Method: STANDARD PLATE”, the mutagenic call is “inactive; negative”.
In the case of `CC(=O)N(O)c1ccc(Oc2ccc(Cl)cc2Cl)cc1`, the mutagenic call runs as follows: under setting [4], “inactive; negative”; (Test System: AMES SALMONELLA TYPHIMURIUM, Strain/Indicator: TA100, Metabolic Activation: RAT, LIVER, S-9, KANECLOR 500, Method: STANDARD PLATE) “active; positive”.
For the molecule `C1=Cc2c(ccc3nc4ccc5ccccc5c4cc23)CC1`, the mutagenic call (Test System: AMES SALMONELLA TYPHIMURIUM, Strain/Indicator: TA98, Metabolic Activation: GUINEA PIG, LIVER, S-9, 3-METHYLCHOLANTHRENE, Method: STANDARD PLATE) was “active; positive” and the mutagenic call (Test System: AMES SALMONELLA TYPHIMURIUM, Strain/Indicator: TA100, Metabolic Activation: GUINEA PIG, LIVER, S-9, 3-METHYLCHOLANTHRENE, Method: STANDARD PLATE) is “active; positive”.
Regarding `Cc1ccc([N+](=O)[O-])c(C)c1[N+](=O)[O-]`, the mutagenic call was “inactive; negative” under setting [1]; “inactive; negative” (Test System: AMES SALMONELLA TYPHIMURIUM, Strain/Indicator: TA98, Metabolic Activation: RAT, LIVER, S-9, KANECHLOR 500, Method: PREINCUBATION); “active; positive” (Test System: AMES SALMONELLA TYPHIMURIUM, Strain/Indicator: TA100, Metabolic Activation: RAT, LIVER, S-9, KANECHLOR 500, Method: PREINCUBATION).
Consider `O=[N+]([O-])c1ccc2ccc3c4c(cc5ccc1c2c53)[C@H](O)[C@@H](O)C=C4`, for which the mutagenic call reads like this: (Test System: AMES SALMONELLA TYPHIMURIUM, Strain/Indicator: TA98, Metabolic Activation: NONE) “active; positive”; (Test System: AMES SALMONELLA TYPHIMURIUM, Strain/Indicator: TA98, Metabolic Activation: RAT, LIVER, S-9, AROCLOR 1254) “active; positive”; (Test System: CHINESE HAMSTER OVARY, Strain/Indicator: CHO-K1-BH4 (HGPRT), Metabolic Activation: NONE) “active; positive”; (Test System: CHINESE HAMSTER OVARY, Strain/Indicator: CHO-K1-BH4 (HGPRT), Metabolic Activation: RAT, LIVER, S-9, 3-METHYLCHOLANTHRENE) “active; positive”.
Consider `O=[N+]([O-])c1ccc2ccc3cc4c(c5ccc1c2c35)CCCC4`, for which the mutagenic call reads like this: under setting [3], “active; positive”; under setting [4], “inactive; negative”.
For `CCn1c(N)nc2c3ncc(C)nc3ccc21`, the mutagenic call (Test System: AMES SALMONELLA TYPHIMURIUM, Strain/Indicator: TA98, Metabolic Activation: RAT, LIVER, S-9, AROCLOR 1254, Method: PREINCUBATION) was “active; positive”.
`Cc1c2c3ccccc3nc-2n(C)c2c(C)cccc12`: the mutagenic call under setting [2] was “active; positive”.
